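1) Cells in 96-well plates. 2) Compound, 48 h, 5 concentrations. 3) Linear interpolation between surrounding doses. 4) Unreached endpoint = highest concentration. Definition used: TGI = concentration required for complete inhibition of growth.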
How the values were obtained:
Assay in all cases: growth of human tumour cells (NCI), 48 h
A549 NSCLC = test system: A549 NSCLC
MCF7 breast = test system: MCF7 breast
SW-620 colon = test system: SW-620 colon
CAKI-1 renal = test system: CAKI-1 renal
RPMI-8226 leukemia = test system: RPMI-8226 leukemia
LOX IMVI melanoma = test system: LOX IMVI melanoma
HOP-62 NSCLC = test system: HOP-62 NSCLC
DU-145 prostate = test system: DU-145 prostate
MDA-MB-231 breast = test system: MDA-MB-231 breast
BT-549 breast = test system: BT-549 breast
CCRF-CEM leukemia = test system: CCRF-CEM leukemia
MOLT-4 leukemia = test system: MOLT-4 leukemia
COLO 205 colon = test system: COLO 205 colon
HS 578T breast = test system: HS 578T breast
OVCAR-4 ovarian = test system: OVCAR-4 ovarian
SK-MEL-5 melanoma = test system: SK-MEL-5 melanoma
MALME-3M melanoma = test system: MALME-3M melanoma
ACHN renal = test system: ACHN renal
NCI/ADR-RES ovarian = test system: NCI/ADR-RES ovarian
KM12 colon = test system: KM12 colon
NCI-H460 lung = test system: NCI-H460 lung
OVCAR-5 ovarian = test system: OVCAR-5 ovarian
HL-60(TB) leukemia = test system: HL-60(TB) leukemia
M14 melanoma = test system: M14 melanoma
HCT-15 colon = test system: HCT-15 colon
MDA-MB-435 = test system: MDA-MB-435
SF-539 CNS = test system: SF-539 CNS
U251 CNS = test system: U251 CNS
PC-3 prostate = test system: PC-3 prostate
SF-295 CNS = test system: SF-295 CNS
SK-MEL-2 melanoma = test system: SK-MEL-2 melanoma
NCI-H23 lung = test system: NCI-H23 lung
MDA-N = test system: MDA-N
UACC-62 melanoma = test system: UACC-62 melanoma
HT29 colon = test system: HT29 colon
TK-10 renal = test system: TK-10 renal
EKVX NSCLC = test system: EKVX NSCLC
OVCAR-3 ovarian = test system: OVCAR-3 ovarian
K-562 leukemia = test system: K-562 leukemia
SK-OV-3 ovarian = test system: SK-OV-3 ovarian
RXF 393 renal = test system: RXF 393 renal
SNB-75 CNS = test system: SNB-75 CNS
SNB-19 CNS = test system: SNB-19 CNS
IGROV1 ovarian = test system: IGROV1 ovarian
T-47D breast = test system: T-47D breast
HCT-116 colon = test system: HCT-116 colon
SN12C renal = test system: SN12C renal
HCC-2998 colon = test system: HCC-2998 colon
UACC-257 melanoma = test system: UACC-257 melanoma
NCI-H226 lung = test system: NCI-H226 lung
UO-31 renal = test system: UO-31 renal
786-0 renal = test system: 786-0 renal
A498 renal = test system: A498 renal
SF-268 CNS = test system: SF-268 CNS
SK-MEL-28 melanoma = test system: SK-MEL-28 melanoma
OVCAR-8 ovarian = test system: OVCAR-8 ovarian

Measured: TGI

COc1ccccc1NC(=S)Nc1cc(C)cc(C)n1
> 100 µM: all assays above

Reference: PubChem BioAssay (NCI)
